In article doi:10.1101/2020.06.11.145995v1 (biorxiv, 2020):
Where two headings read alike, the source gives them in different places.

Columns and labels:
Assay in all cases: biochemical
SYK = SYK (Homo sapiens, UniProt P43405)
PCTK3 = PCTK3 (Homo sapiens, UniProt Q07002)
PIK3CA(E545A) = PIK3CA(E545A) (Homo sapiens, UniProt P42336, E545A)
YANK1 = YANK1 (Homo sapiens, UniProt Q8WU08)
RSK1 = RSK1 (Homo sapiens, UniProt Q15418)
STK39 = STK39 (Homo sapiens, UniProt Q9UEW8)
PRKCE = PRKCE (Homo sapiens, UniProt Q02156)
TBK1 = TBK1 (Homo sapiens, UniProt Q9UHD2)
TNNI3K = TNNI3K (Homo sapiens, UniProt Q59H18)
NEK1 = NEK1 (Homo sapiens, UniProt Q96PY6)
PRKX = PRKX (Homo sapiens, UniProt P51817)
SLK = SLK (Homo sapiens, UniProt Q9H2G2)
PCTK1 = PCTK1 (Homo sapiens, UniProt Q00536)
PIK3C2B = PIK3C2B (Homo sapiens, UniProt O00750)
STK36 = STK36 (Homo sapiens, UniProt Q9NRP7)
PHKG2 = PHKG2 (Homo sapiens, UniProt P15735)
RIOK2 = RIOK2 (Homo sapiens, UniProt Q9BVS4)
QSK = QSK (Homo sapiens, UniProt Q9Y2K2)
TESK1 = TESK1 (Homo sapiens, UniProt Q15569)
PRKCQ = PRKCQ (Homo sapiens, UniProt Q04759)
YANK3 = YANK3 (Homo sapiens, UniProt Q86UX6)
PFTK1 = PFTK1 (Homo sapiens, UniProt O94921)
PRKCD = PRKCD (Homo sapiens, UniProt Q05655)
VRK2 = VRK2 (Homo sapiens, UniProt Q86Y07)
PAK7 = PAK7 (Homo sapiens, UniProt Q9P286)
RIPK1 = RIPK1 (Homo sapiens, UniProt Q13546)
PHKG1 = PHKG1 (Homo sapiens, UniProt Q16816)
SNRK = SNRK (Homo sapiens, UniProt Q9NRH2)
NEK3 = NEK3 (Homo sapiens, UniProt P51956)
[1] = read-out: HYJ-2-002-1 (1μM) % control
[2] = read-out: CPT-1-70-1 (1μM) % control

Sequence of RSK1 (Q15418 whole entry): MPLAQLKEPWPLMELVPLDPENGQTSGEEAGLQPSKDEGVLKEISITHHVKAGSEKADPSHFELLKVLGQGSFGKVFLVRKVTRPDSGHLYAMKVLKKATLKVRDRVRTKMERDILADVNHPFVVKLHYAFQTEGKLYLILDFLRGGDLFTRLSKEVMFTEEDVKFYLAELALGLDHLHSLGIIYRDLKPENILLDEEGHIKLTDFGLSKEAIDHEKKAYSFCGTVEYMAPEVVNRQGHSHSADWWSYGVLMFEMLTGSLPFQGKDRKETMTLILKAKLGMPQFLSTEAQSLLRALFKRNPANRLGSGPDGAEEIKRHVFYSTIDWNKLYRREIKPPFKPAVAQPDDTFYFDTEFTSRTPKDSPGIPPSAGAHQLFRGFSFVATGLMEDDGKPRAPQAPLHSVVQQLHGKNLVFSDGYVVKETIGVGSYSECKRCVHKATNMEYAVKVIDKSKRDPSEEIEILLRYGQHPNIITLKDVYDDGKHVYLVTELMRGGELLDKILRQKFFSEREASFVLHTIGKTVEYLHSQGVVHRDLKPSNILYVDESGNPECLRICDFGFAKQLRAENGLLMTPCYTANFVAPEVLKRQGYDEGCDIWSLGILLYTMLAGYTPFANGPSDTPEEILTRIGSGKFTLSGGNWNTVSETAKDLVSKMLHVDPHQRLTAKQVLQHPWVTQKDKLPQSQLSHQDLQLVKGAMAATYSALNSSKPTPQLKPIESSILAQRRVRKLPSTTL
Sequence of SNRK (Q9NRH2 whole entry): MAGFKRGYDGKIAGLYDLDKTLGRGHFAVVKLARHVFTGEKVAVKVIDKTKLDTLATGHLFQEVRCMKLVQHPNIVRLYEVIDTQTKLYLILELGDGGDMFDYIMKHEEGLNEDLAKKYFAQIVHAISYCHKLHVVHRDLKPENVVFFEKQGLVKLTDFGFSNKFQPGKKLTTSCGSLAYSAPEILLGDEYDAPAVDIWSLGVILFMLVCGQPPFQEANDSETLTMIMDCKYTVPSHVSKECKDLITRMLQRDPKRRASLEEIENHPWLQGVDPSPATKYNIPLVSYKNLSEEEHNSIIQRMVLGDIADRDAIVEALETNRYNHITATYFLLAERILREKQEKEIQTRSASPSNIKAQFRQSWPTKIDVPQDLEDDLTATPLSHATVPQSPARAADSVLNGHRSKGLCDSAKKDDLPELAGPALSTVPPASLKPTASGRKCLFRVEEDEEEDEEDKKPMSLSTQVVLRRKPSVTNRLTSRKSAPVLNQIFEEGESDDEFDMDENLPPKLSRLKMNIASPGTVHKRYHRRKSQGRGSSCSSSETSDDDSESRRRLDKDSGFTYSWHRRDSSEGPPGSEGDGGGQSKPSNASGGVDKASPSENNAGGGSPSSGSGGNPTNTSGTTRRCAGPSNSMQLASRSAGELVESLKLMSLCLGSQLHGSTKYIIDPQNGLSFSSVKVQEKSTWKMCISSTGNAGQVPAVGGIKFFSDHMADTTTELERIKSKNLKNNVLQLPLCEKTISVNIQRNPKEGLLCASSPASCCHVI
Sequence of PHKG2 (P15735 whole entry): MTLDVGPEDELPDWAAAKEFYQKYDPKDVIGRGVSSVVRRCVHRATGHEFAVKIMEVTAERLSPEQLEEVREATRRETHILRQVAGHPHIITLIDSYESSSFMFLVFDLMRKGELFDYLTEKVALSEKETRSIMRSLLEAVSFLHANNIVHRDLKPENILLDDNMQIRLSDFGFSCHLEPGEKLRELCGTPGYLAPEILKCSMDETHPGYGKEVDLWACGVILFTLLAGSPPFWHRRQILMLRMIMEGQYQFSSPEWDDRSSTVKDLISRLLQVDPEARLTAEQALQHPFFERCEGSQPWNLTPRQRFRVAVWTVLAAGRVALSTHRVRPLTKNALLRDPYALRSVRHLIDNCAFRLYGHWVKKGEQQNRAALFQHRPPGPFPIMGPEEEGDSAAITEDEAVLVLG
Sequence of PHKG1 (Q16816 whole entry): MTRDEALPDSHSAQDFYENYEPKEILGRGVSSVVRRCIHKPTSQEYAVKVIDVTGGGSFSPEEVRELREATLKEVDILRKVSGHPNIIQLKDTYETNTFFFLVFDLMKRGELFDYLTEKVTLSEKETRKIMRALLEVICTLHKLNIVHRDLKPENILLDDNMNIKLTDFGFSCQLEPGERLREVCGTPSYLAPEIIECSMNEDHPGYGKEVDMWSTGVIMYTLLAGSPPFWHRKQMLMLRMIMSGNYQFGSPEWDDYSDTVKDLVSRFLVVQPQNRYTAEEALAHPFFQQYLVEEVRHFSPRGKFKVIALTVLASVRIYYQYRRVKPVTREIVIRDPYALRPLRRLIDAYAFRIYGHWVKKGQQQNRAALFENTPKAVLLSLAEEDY
Sequence of PRKCD (Q05655 whole entry): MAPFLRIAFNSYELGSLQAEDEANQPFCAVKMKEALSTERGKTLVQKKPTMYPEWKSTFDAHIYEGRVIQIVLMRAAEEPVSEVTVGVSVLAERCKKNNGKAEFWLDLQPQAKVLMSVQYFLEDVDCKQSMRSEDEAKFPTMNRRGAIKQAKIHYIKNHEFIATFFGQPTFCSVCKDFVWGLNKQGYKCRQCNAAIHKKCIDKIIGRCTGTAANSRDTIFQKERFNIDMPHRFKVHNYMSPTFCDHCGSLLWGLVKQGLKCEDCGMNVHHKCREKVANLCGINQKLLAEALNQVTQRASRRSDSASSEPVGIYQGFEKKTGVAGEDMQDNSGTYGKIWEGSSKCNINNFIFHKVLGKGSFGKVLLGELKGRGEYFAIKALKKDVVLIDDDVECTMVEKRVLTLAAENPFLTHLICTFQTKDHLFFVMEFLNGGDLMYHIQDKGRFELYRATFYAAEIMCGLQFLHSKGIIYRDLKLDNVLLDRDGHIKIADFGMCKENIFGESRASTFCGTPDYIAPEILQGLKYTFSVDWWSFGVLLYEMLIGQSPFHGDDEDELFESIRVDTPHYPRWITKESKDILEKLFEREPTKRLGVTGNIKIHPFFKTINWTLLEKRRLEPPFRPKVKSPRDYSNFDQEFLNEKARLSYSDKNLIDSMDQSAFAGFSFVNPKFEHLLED
Sequence of PRKCE (Q02156 whole entry): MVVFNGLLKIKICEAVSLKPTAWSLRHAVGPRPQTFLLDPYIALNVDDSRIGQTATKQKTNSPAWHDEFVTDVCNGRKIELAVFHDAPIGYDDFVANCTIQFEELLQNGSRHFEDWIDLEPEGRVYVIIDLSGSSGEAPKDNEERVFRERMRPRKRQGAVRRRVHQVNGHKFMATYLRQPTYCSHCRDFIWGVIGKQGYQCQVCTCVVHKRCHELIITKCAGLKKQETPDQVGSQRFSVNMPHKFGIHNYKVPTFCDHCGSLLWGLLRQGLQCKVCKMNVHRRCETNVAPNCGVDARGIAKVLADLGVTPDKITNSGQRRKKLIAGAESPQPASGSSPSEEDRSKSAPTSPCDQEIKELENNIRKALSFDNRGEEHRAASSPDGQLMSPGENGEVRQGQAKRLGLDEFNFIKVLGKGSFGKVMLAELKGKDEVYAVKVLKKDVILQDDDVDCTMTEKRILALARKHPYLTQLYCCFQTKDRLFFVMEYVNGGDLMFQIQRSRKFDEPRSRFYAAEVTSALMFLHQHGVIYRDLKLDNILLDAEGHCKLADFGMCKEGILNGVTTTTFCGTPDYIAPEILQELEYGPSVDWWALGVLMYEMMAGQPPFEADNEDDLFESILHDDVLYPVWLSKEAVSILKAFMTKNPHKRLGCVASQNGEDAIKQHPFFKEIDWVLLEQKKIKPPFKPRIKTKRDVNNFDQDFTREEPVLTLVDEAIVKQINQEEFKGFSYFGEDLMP
Sequence of TBK1 (Q9UHD2 whole entry): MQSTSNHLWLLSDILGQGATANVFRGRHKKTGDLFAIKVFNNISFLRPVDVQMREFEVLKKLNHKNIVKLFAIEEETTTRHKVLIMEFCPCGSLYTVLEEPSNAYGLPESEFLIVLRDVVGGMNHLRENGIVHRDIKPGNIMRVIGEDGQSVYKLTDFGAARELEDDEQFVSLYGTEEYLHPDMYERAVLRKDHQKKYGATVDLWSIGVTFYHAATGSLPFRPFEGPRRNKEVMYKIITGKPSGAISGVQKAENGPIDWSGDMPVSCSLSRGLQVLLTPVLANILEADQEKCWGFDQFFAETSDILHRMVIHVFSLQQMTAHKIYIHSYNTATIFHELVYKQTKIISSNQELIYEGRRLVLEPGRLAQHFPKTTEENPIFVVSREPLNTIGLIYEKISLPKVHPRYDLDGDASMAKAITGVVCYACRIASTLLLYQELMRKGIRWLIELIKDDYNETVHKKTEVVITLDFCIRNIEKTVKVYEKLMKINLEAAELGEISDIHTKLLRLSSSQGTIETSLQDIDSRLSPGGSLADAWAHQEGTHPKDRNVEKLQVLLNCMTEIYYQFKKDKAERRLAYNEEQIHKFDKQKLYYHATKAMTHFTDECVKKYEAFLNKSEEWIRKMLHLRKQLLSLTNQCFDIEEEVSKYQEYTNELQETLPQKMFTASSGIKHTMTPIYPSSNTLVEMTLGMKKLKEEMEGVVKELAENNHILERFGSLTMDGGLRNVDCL
Sequence of PFTK1 (O94921 whole entry): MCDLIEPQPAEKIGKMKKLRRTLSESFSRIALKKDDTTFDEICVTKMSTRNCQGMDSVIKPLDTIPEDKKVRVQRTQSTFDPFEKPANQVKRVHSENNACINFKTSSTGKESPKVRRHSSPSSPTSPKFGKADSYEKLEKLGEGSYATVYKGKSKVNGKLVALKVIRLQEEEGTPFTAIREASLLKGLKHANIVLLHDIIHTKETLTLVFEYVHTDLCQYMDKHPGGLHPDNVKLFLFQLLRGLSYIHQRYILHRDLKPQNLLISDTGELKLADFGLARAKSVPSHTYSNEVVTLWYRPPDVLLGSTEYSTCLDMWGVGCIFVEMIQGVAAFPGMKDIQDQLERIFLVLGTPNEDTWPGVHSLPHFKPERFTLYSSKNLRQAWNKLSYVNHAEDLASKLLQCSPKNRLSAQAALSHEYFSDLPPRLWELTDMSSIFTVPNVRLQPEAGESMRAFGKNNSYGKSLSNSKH

## CCN1CCN(Cc2ccc(NC(=O)c3ccc(C)c(CCc4cnc5[nH]ccc5c4OC)c3)cc2C(F)(F)F)CC1 [HYJ-2-002-1]
SYK; [1]
  remaining activity at 1 µM: 18%
PCTK3; [1]
  remaining activity at 1 µM: 100%
PIK3CA(E545A); [1]
  remaining activity at 1 µM: 100%
YANK1; [1]
  remaining activity at 1 µM: 100%
RSK1; read-out: HYJ-2-002-1 (1μM) % control, Kin.Dom.1-N-terminal
  remaining activity at 1 µM: 96%
RSK1; read-out: HYJ-2-002-1 (1μM) % control, Kin.Dom.2-C-terminal
  remaining activity at 1 µM: 61%
STK39; [1]
  remaining activity at 1 µM: 94%
PRKCE; [1]
  remaining activity at 1 µM: 100%
TBK1; [1]
  remaining activity at 1 µM: 100%
TNNI3K; [1]
  remaining activity at 1 µM: 6.6%
NEK1; [1]
  remaining activity at 1 µM: 82%
PRKX; [1]
  remaining activity at 1 µM: 78%
SLK; [1]
  remaining activity at 1 µM: 9.8%
PCTK1; [1]
  remaining activity at 1 µM: 100%
PIK3C2B; [1]
  remaining activity at 1 µM: 100%
STK36; [1]
  remaining activity at 1 µM: 2.2%
PHKG2; [1]
  remaining activity at 1 µM: 73%
RIOK2; [1]
  remaining activity at 1 µM: 35%
QSK; [1]
  remaining activity at 1 µM: 100%
TESK1; [1]
  remaining activity at 1 µM: 81%
PRKCQ; [1]
  remaining activity at 1 µM: 82%
YANK3; [1]
  remaining activity at 1 µM: 100%
PFTK1; [1]
  remaining activity at 1 µM: 100%
PRKCD; [1]
  remaining activity at 1 µM: 78%
VRK2; [1]
  remaining activity at 1 µM: 100%
PAK7; [1]
  remaining activity at 1 µM: 92%
RIPK1; [1]
  remaining activity at 1 µM: 8.2%
PHKG1; [1]
  remaining activity at 1 µM: 100%
SNRK; [1]
  remaining activity at 1 µM: 100%
NEK3; [1]
  remaining activity at 1 µM: 100%

## CN1CCN(c2ccc(Nc3nc(Oc4ccc(NC(=O)CCl)cc4)c4cc[nH]c4n3)cc2)CC1 [CPT1-70-1]
SYK; [2]
  remaining activity at 1 µM: 63%
PCTK3; [2]
  remaining activity at 1 µM: 97%
PIK3CA(E545A); [2]
  remaining activity at 1 µM: 79%
YANK1; [2]
  remaining activity at 1 µM: 100%
RSK1; read-out: CPT-1-70-1 (1μM) % control, Kin.Dom.1-N-terminal
  remaining activity at 1 µM: 72%
RSK1; read-out: CPT-1-70-1 (1μM) % control, Kin.Dom.2-C-terminal
  remaining activity at 1 µM: 100%
STK39; [2]
  remaining activity at 1 µM: 85%
PRKCE; [2]
  remaining activity at 1 µM: 63%
TBK1; [2]
  remaining activity at 1 µM: 43%
TNNI3K; [2]
  remaining activity at 1 µM: 100%
NEK1; [2]
  remaining activity at 1 µM: 100%
PRKX; [2]
  remaining activity at 1 µM: 100%
SLK; [2]
  remaining activity at 1 µM: 77%
PCTK1; [2]
  remaining activity at 1 µM: 100%
PIK3C2B; [2]
  remaining activity at 1 µM: 100%
STK36; [2]
  remaining activity at 1 µM: 78%
PHKG2; [2]
  remaining activity at 1 µM: 72%
RIOK2; [2]
  remaining activity at 1 µM: 5.2%
QSK; [2]
  remaining activity at 1 µM: 100%
TESK1; [2]
  remaining activity at 1 µM: 83%
PRKCQ; [2]
  remaining activity at 1 µM: 100%
YANK3; [2]
  remaining activity at 1 µM: 100%
PFTK1; [2]
  remaining activity at 1 µM: 100%
PRKCD; [2]
  remaining activity at 1 µM: 100%
VRK2; [2]
  remaining activity at 1 µM: 100%
PAK7; [2]
  remaining activity at 1 µM: 13%
RIPK1; [2]
  remaining activity at 1 µM: 0.15%
PHKG1; [2]
  remaining activity at 1 µM: 100%
SNRK; [2]
  remaining activity at 1 µM: 55%
NEK3; [2]
  remaining activity at 1 µM: 68%
